# In patent publication US8481084B2, “Cholesterol-interacting layered phyllosilicates and methods of reducing hypercholesteremia in a mammal” (Amcol International Corporation, priority 2007, dated 2013):
# Legend:
# [1] = test system: New Zealand Male Rabbits fed a high cholesterol diet; assay: Plasma lipids in rabbits fed a high cholesterol diet, severe dyslipidemic model (Example 11); assay type: in vivo, New Zealand white rabbits
# Description: Male New Zealand white rabbits ([…]; Control group [n=5], Simvastatin Group [n=4], Compound A Group [n=5], Compound B Group [n=5] and Compound C Group [n=5]) were housed in individual cages in a room with constant humidity and temperature (22° C.) under a 12 h light-dark cycle, and fed a standard diet for 7 days. After 7 days, animals were fed 10 g of a regular chow diet plus 100 g of the same diet supplemented with 0.5% (w/v) cholesterol and 14.0% (w/v) coconut oil for an additional 28 days. The final diet administered to these rabbits (following dilution of 100 g of high fat/cholesterol diet with 10 g of regular chow) consistent of 0.45% (w/v) cholesterol and 12.75% (w/v) coconut oil. […] The total plasma cholesterol, ApoB, HDL and triglyceride concentrations of the subjects prior to drug treatment is set forth in FIGS. 1-4, respectively.
# For an additional 21 days (day 35 to day 56 of the study), a group of control animals (n=5) were maintained on the same diet (10 g regular chow diet plus 100 g of cholesterol/coconut diet) and four groups of animals were fed 100 g of cholesterol/coconut diet plus 10 g regular chow diet containing either simvastatin (3 mg/kg/day; n=4), Compound A (hydrogen protonated layered phyllosilicate material (prepared as described above in Example 2); 20 mg/kg/day; n=5), Compound B (layered phyllosilicate material with surface modified with lecithin prepared as described above in Example 5); 20 mg/kg/day; n=5) and Compound C (layered phyllosilicate material with surface acid treatment prepared as described above in Example 6) 20 mg/kg/day; n=5). Whole blood was collected (3 ml) prior to and 7, 14, and 21 days after initiation of treatment for plasma lipid determinations.
# Plasma total cholesterol and triglyceride concentrations were directly quantified using enzymatic kits (Sigma Aldrich). HDL-cholesterol concentrations were determined using the dextran sulfate-Mg^2+ precipitation method as developed by Wamick et al. (9). The Friedewald equation for determining LDL cholesterol could not be used in this rabbit fed model (10). However, measurement of apoB cholesterol (which takes into account LDL-cholesterol) concentrations were determined by subtracting HDL-cholesterol concentrations from total cholesterol concentrations.
# Statistical analysis: Results are expressed as mean±standard error of the mean (SEM). Statistical analyses were conducted using an analysis of variance (PCANOVA; Human Dynamic Systems) and assuming unequal variance (Newman Keuls post-hoc test; assuming unequal variance). Variables compared among treatment groups include, weight gain, total plasma cholesterol, total plasma triglyceride, HDL-cholesterol and ApoB-cholesterol. A p-value of less than 0.05 indicates a significant difference between treated and untreated groups.
# [2] = test system: intestinal cholesterol absorption; assay: Absorption of orally given [3H]cholesterol in rats, plasma AUC (Example 12); assay type: in vivo, male Sprague Dawley rats
# Description: The following Example was performed to determine the bioavailability and pharmacokinetics of dietary cholesterol following oral administration of different layered phyllosilicate material compounds to male Sprague Dawley rats, using the methodology reported in Wassan et al. J. Pharmaceut. Sci., 90:23-28, 2001.
# Preparation of cholesterol formulation: Commercially available 20% Intralipid® was diluted by external phase of emulsion to reach a triglyceride concentration of 10% v/v. Cold cholesterole as dissolved in 100% ethanol (1 mg/75 μl) and the solution was slowly added to the 10% Intralipid® with magnetic stirring. [^3H]cholesterol toluene solution (25 μl/ml) was then slowly added and then vortexed for 30 seconds. The formulation was then mixed by magnetic stirring for an additional 30 minutes until ready for administration. The final formulation contained 90% of the 10% Intralipid®, 7.5% ethanol and 2.5% toluene. The final concentrations of cold and radiolabeled cholesterol were 1 mg/ml and 25 μCi/ml, respectively.
# Preparation of Ezetimibe Formulation: Commercially Available Ezetimibe Tablets were crushed and suspended in double distilled water to reach final ezetimibe concentration of 5 mg/ml. The suspension was briefly vortexed and then stirred using a magnetic stirrer for about 1 hour until ready for administration.
# Preparation of the Stigmastanol Formulation: Stigmastanol was Pre-Wetted by Tween 80 (1% v/v final concentration) and suspended in 2% sodium carboxymethyl cellulose solution in double distilled water. The suspension was briefly vortexed for about 3 minutes, sonicated (Bransonic®3510) for 2 hours at ambient temperature and then stirred with a magnetic stirrer for 30 minutes until ready for administration. The final concentration of stigmastanol in the suspension was 25 mg/ml.
# Experimental design: All rats used in this study were cared for in accordance with the principles promulgated by the Canadian Council on Animal Care and the University of British Columbia. Adult male Sprague Dawley rats (weighing approximately 350 g) were obtained from UBC animal care unit (Vancouver, B. C., Canada). The rats were maintained under a 12 hour light ([…])/dark cycle and supplied with a standard laboratory diet (PMI Feeds, Richmond, Va., USA) and water ad libitum. The right external jugular vein was cannulated with a two-part catheter consisting of PE 50 connected to a short length of 0.02 inch silastic tubing inserted 3.2 cm past the clavicle (Hauss et al., Contemp Top Lab Anim Sci., 37(3):56-58 1998). The jugular cannula was tunneled beneath the skin and exteriorized through a small stab wound in the back of the neck. The animals were outfitted with jacket-and-tether assemblies and placed in metabolism cages for the duration of the study.
# Following completion of the surgical procedures, the animals were fasted overnight and permitted to recover for 16-20 hours. Free access to a drinking solution consisting of 5% glucose in lactated Ringer's solution was permitted postoperatively and throughout the study. The following treatment protocol was used. Following an overnight fast (12-16 hours), rats were divided into one of the following fourteen treatment groups and received a single-dose oral gavage (1 g Intralipid emulsion) at 0700 h of either:
# All of test Compounds A, G, H, I, J, K, L or M were given as a separate slurry to the animal by oral gavage.
# Following oral administration, serial blood samples were collected into EDTA-coated tubes predose and at 10 minutes predosing and at 0.5, 1, 2, 4, 6, 10, 24 28, 32 and 48 hours postdosing. The withdrawn blood was replaced by equal volume of normal saline to prevent hypovolemia. Rats remained fasted throughout the duration of blood sampling (12 h predosing+24 h postdosing=[…] total fasting). Plasma was obtained by centrifugation and analyzed for [^3H] cholesterol by radioactivity. […]
structure (smiles),measurement,setting,value
"CCC(C)(C)C(=O)O[C@H]1C[C@@H](C)C=C2C=C[C@H](C)[C@H](CC[C@@H]3C[C@@H](O)CC(=O)O3)[C@H]21 [Simvastatin, simvastatin]","ApoB-Cholesterol, % C (percentage change from Day 35 to Day 56)","[1]; SVT 3 mg/kg/day, A, B, C 20 mg/kg/day, control +63%",−53%
same,"Total Cholesterol, % C (percentage change from Day 35 to Day 56)","[1]; SVT 3 mg/kg/day, A, B, C 20 mg/kg/day, control +68%",−52%
same,"Total Cholesterol, Day 35","[1]; beginning of drug treatment (day 35), mean ± SEM, SVT 3 mg/kg/day, A, B, C 20 mg/kg/day",1167 ± 276 mg/dL
same,"ApoB-Cholesterol, Day 35","[1]; beginning of drug treatment (day 35), total minus HDL cholesterol, mean ± SEM",1092 ± 265 mg/dL
same,"Total Cholesterol, Day 56","[1]; end of drug treatment (day 56), mean ± SEM, SVT 3 mg/kg/day, A, B, C 20 mg/kg/day",556 ± 122 mg/dL
same,"ApoB-Cholesterol, Day 56","[1]; end of drug treatment (day 56), total minus HDL cholesterol, mean ± SEM",517 ± 121 mg/dL
O=C1[C@H](CC[C@H](O)c2ccc(F)cc2)[C@@H](c2ccc(O)cc2)N1c1ccc(F)cc1 [ezetimibe],% of control group (AUC0-48 h),[2]; 10 mg/kg,8.6%
same,AUC0-48h (mean±SEM),[2]; 10 mg/kg ezetimibe,6940 ± 462 ng·h/mL
same,AUC0-48 h of cholesterol (mean ± SEM),"[2]; 10 mg/kg oral with [3H]cholesterol, control 80861 ± 5911",6937 ± 462 ng·h/mL
same,"inhibition of intestinal cholesterol absorption, in words",[2]; ezetimibe 10 mg/kg versus Compound A or stigmastanol 50 mg/kg,higher inhibition
CC[C@H](CC[C@@H](C)[C@H]1CC[C@H]2[C@@H]3CC[C@H]4C[C@@H](O)CC[C@]4(C)[C@H]3CC[C@]12C)C(C)C [stigmastanol],% of control group (AUC0-48 h),[2]; 50 mg/kg,68.9%
same,AUC0-48 h of cholesterol (mean ± SEM),[2]; 50 mg/kg oral with [3H]cholesterol,55742 ± 3764 ng·h/mL
